Results as given in paper PMC7615343, “Fluorination Influences the Bioisostery of Myo-Inositol Pyrophosphate Analogs” (Chemistry (Weinheim an der Bergstrasse, Germany), 2023).

Biological target: T1, PPIP5K2^1-366 (human PPIP5K2 kinase domain) (Homo sapiens, UniProt O43314)
T1 construct: one comprised residues 1–366; made in house
T1 sequence (O43314 1-366): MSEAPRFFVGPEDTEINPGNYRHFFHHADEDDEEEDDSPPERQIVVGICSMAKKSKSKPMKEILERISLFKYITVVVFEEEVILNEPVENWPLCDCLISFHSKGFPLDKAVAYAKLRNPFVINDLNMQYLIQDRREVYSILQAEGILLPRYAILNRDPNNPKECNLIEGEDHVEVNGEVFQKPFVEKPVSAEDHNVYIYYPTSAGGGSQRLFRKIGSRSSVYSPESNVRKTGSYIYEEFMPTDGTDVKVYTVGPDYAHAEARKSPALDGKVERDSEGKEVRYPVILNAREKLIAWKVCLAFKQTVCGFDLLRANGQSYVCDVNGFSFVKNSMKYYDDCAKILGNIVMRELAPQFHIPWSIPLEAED
Test: Isothermal titration calorimetry of ligand binding to PPIP5K2KD
Details: ITC, 25°C; for ΔH / ΔS: 7.5 μM PPIP5K2^1-366, 75 μM ligand, pH 7.2; for Kd: 7.5 μM PPIP5K2^1-366 in cell, 75 μM ligand in syringe, pH 7.2, 1mM AMP-PNP, 1mM MgCl2, read-out: Kd (apparent)
From the text: We next used isothermal titration calorimetry (ITC) to analyze the interactions of PPIP5K2^KD with 5PP-IP5 and each of the four analogs studied herein (Figure 5A-E). […] At the same time, the enthalpic gain for binding was largest for 5PCF2Am-IP5 and 5PA-IP5. A possible explanation may be that these two ligands are less strongly hydrated, due to their lower overall charge. The enthalpic cost for dehydration of 5PCF2Am-IP5 and 5PA-IP5 is therefore lower, compared to the other molecules, resulting in a higher enthalpic gain overall. A less strongly hydrated ligand will also release fewer water molecules upon binding, consistent with the lower entropic gains.
Figure 5 Analysis of ligand binding to the PPIP5K2^KD by ITC. Test solutions contained 7.5 μM of PPIP5K2^1-366 in the sample cell and 75 μM ligand in the syringe. Other details are provided in the Methods Section. Representative thermograms (1 of 3 replicates) are shown for titration of either (A) 5PP-IP5; (B) 5PCPF2P-IP5; (C) 5PCP-IP5; (D) 5PCF2Am-IP5; (E) 5PA-IP5. (F) Corresponding thermodynamic data. TEXT PRINTED IN THE PICTURE: (F) 5PP-: Kd (nM): 123 ± 13; ΔH (kJ/mol): -26 ± 2; ΔS (kJ/mol/deg): 0.046 ± 0.008 | (F) 5PCF2-: Kd (nM): 246 ± 10; ΔH (kJ/mol): -16 ± 1; ΔS (kJ/mol/deg): 0.072 ± 0.005 | (F) 5PCP-: Kd (nM): 100 ± 10; ΔH (kJ/mol): -20 ± 2; ΔS (kJ/mol/deg): 0.067 ± 0.016 | (F) 5PCF2-Am-: Kd (nM): 90 ± 13; ΔH (kJ/mol): -38 ± 2; ΔS (kJ/mol/deg): 0.007 ± 0.004 | (F) 5PA-: Kd (nM): 90 ± 7; ΔH (kJ/mol): -36 ± 3; ΔS (kJ/mol/deg): 0.013 ± 0.008 […]
(§1) Calorimetry experiments were performed using a MicroCal PEAQ-ITC (Malvern Panalytical) with 7.5 μM recombinant PPIP5K21-366 in the sample cell and 75 μM of ligand in the syringe, each of which was maintained at 25°C in buffer containing 20 mM HEPES, pH 7.2, 150 mM KCl, 0.05 mM EDTA, 1mM AMP-PNP, 1mM MgCl2 as indicated. The sample cell (volume = 204 μL) and the syringe were cleaned before each run. Thermograms were constructed from 13 injections, each of which involved 3 μL of ligand delivered for 6 s, with an equilibration time of 150-300 s between each injection. The stirring speed was set to 750 rpm. Data were fitted to a single binding site model using the analysis software provided by the manufacturer. At least three runs were performed for each condition.
Protein expression and purification.
Throughout the main text, PPIP5K2KD is deployed as an abbreviation for the human PPIP5K2 kinase domain. However, two different constructs were utilized, as described in the figure legends and within the Methods section below: one comprised residues 1–366 (PPIP5K21-366) and the other comprised residues 41–366 (PPIP5K241-366). Both constructs were expressed and purified as described previously.[6] The human DIPP1 construct (residues 1-148) was expressed and purified as described in [7]. […]
The molecular graphics representations wer e prepared with the program PyMol (Schrödinger, LLC). Atomic coordinates an d structure factors have been deposited with the Protein Data Bank with accession codes 8G9C, 8G9D, 8G9E.
PPIP5K2KD reverse kinase assay […]
Isothermal titration calorimetry
as §1, with “PPIP5K21–366” for “PPIP5K21-366”, “2 04 µL)” for “204 μL)”, “µL” for “μL”, “150 -300” for “150-300”, “cond ition. […]” for “condition.”

Row | ΔH [kcal/mol] | ΔS [kJ/mol/deg] | Kd [nM] | SMILES
1 | -3.82 ± 0.24 | 0.072 ± 0.005 | 246 | O=P(O)(O)O[C@H]1[C@@H](OP(=O)(O)O)[C@H](OP(=O)(O)O)[C@@H](OP(=O)(O)C(F)(F)P(=O)(O)O)[C@H](OP(=O)(O)O)[C@H]1OP(=O)(O)O [5PCF2P-IP5]
2 | -4.78 ± 0.48 | 0.067 ± 0.016 | 100 ± 10 | O=P(O)(O)CP(=O)(O)O[C@H]1[C@H](OP(=O)(O)O)[C@@H](OP(=O)(O)O)[C@@H](OP(=O)(O)O)[C@@H](OP(=O)(O)O)[C@@H]1OP(=O)(O)O [5PCP-IP5]
